# Assay results as given in patent US9896441B2 (Lycera Corporation, priority 2014, dated 2018).
# pEC50: −log10 of the molar value.
# Legend:
# RORγ-LBD = biological target: T1, RORγ-LBD (Homo sapiens, UniProt P51449); assay: RORγ-Ligand Binding Domain (LBD) TR-FRET Assay; type: biochemical; settings: RORγ-LBD TR-FRET
# T1 construct: made in house; host or cells: SF9 cells (baculovirus); used as diluted lysate
# T1 sequence (P51449 269-508 limits assumed): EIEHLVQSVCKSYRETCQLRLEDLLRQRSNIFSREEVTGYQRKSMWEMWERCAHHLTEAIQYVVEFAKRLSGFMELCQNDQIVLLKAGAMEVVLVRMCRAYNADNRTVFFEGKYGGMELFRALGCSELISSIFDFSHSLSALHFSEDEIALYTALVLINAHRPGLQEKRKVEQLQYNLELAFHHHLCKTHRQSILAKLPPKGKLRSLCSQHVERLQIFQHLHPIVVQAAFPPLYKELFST
# How it was run: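 Lysate from SF9 cells expressing His-RORγ-LBD is diluted to about 3 nM final in 50 mM Tris pH 7.0 assay buffer. A biotin-tagged SRC1 LXXLL peptide goes in at 200 nM final, plus ursolic acid at 2 μM final. Test compounds carry 1% DMSO final; signal read by TR-FRET.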
# Gal4-RORγ-LBD = biological target: T2, Gal4-RORγ-LBD (Homo sapiens, UniProt P51449); assay: Gal4-RORγ Luciferase Reporter Assay in HEK-293T Cells; type: cell-based; settings: HEK-293 cells, luciferase reporter, with ursolic acid
# T2 construct: expressed in transfected cells
# T2 sequence (P51449 269-508 limits assumed): T1 sequence (P51449 269-508 limits assumed)
# How it was run: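 Max Response was taken as the upper plateau of a 4-parameter logistic fit of luciferase signal, normalized to 100 for wells without ursolic acid or compound. Transiently Gal4-RORγ-LBD/Gal4-luc transfected HEK-293 cells carrying […] ursolic acid were incubated with test compounds (0.2% DMSO) overnight at 37 °C and read with One-Glo.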
Compound,pEC50 (RORγ-LBD),pEC50 (Gal4-RORγ-LBD)
"CCOc1nn(CC)cc1S(=O)(=O)N1C[C@H](CCC(=O)OC)Oc2ccc(/C=C/c3ccc(Cl)cc3)cc21 [Example 89DA, methyl (S,E)-3-(6-(4-chlorostyryl)-4-((3-ethoxy-1-ethyl-1H-pyrazol-4-yl)sulfonyl)-3,4-dihydro-2H-benzo[b][1,4]oxazin-2-yl)propanoate]",< 5.00,< 5.00
"CCOc1nn(CC)cc1S(=O)(=O)N1C[C@H](CCC(=O)O)Oc2ccc(/C=C/c3ccc(Cl)cc3)cc21 [Example 89DB, (S,E)-3-(6-(4-chlorostyryl)-4-((3-ethoxy-1-ethyl-1H-pyrazol-4-yl)sulfonyl)-3,4-dihydro-2H-benzo[b][1,4]oxazin-2-yl)propanoic acid]",< 5.00,< 5.00
"CCOc1nn(CC)cc1S(=O)(=O)N1C[C@H](CCC(=O)O)Oc2ccc(/C=C/c3ccc(C#N)cc3)cc21 [Example 89DC, (S,E)-3-(6-(4-cyanostyryl)-4-((3-ethoxy-1-ethyl-1H-pyrazol-4-yl)sulfonyl)-3,4-dihydro-2H-benzo[b][1,4]oxazin-2-yl)propanoic acid]",< 5.00,< 5.00
"CCOc1ncc(C(F)(F)F)cc1S(=O)(=O)N1C[C@H](CCC(=O)OC)Oc2ccc(/C=C/c3c(Cl)cccc3C(F)(F)F)cc21 [Example 89DN, methyl (S,E)-3-(6-(2-chloro-6-(trifluoromethyl)styryl)-4-((2-ethoxy-5-(trifluoromethyl)-pyridin-3-yl)sulfonyl)-3,4-dihydro-2H-benzo[b][1,4]-oxazin-2-yl)propanoate]",> 6.30,5.30 to 6.30
"CCOc1nn(CC)cc1S(=O)(=O)N1C[C@H](CCC(=O)O)Oc2ccc(/C=C/c3c(Cl)cccc3C(F)(F)F)cc21 [Example 89DO, (S,E)-3-(6-(2-chloro-6-(trifluoromethyl)styryl)-4-((3-ethoxy-1-ethyl-1H-pyrazol-4-yl)sulfonyl)-3,4-dihydro-2H-benzo[b][1,4]oxazin-2-yl)propanoic acid]",> 6.30,> 6.30
"CCOc1nn(CC)cc1S(=O)(=O)N1C[C@H](CCC(=O)OC)Oc2ccc(/C=C/c3c(Cl)cccc3C(F)(F)F)cc21 [Example 89DP, methyl (S,E)-3-(6-(2-chloro-6-(trifluoromethyl)styryl)-4-((3-ethoxy-1-ethyl-1H-pyrazol-4-yl)sulfonyl)-3,4-dihydro-2H-benzo[b][1,4]oxazin-2-yl)propanoate]",> 6.30,> 6.30
"O=C(O)CC[C@H]1CN(S(=O)(=O)c2cccc(OC(F)F)c2)c2cc(/C=C/c3c(Cl)cccc3C(F)(F)F)ccc2O1 [Example 89DQ, (S,E)-3-(6-(2-chloro-6-(trifluoromethyl)styryl)-4-((3-(difluoromethoxy)phenyl)sulfonyl)-3,4-dihydro-2H-benzo[b][1,4]oxazin-2-yl)propanoic acid]",> 6.30,> 6.30
"O=C(O)CC[C@H]1CN(S(=O)(=O)c2cccc(OC(F)F)c2)c2cc(/C=C/c3ncccc3Cl)ccc2O1 [Example 89DT, (S,E)-3-(6-(2-(3-chloropyridin-2-yl)vinyl)-4-((3-(difluoromethoxy)phenyl)sulfonyl)-3,4-dihydro-2H-benzo[b][1,4]-oxazin-2-yl)propanoic acid]",> 6.30,5.30 to 6.30
"CCOc1ncc(C(F)(F)F)cc1S(=O)(=O)N1C[C@H](CCC(=O)O)Oc2ccc(/C=C/c3c(F)cccc3Cl)cc21 [Example 89DU, (S,E)-3-(6-(2-chloro-6-fluorostyryl)-4-((2-ethoxy-5-(trifluoromethyl)pyridin-3-yl)sulfonyl)-3,4-dihydro-2H-benzo[b][1,4]oxazin-2-yl)propanoic acid]",> 6.30,5.30 to 6.30
"CCOc1ncc(C(F)(F)F)cc1S(=O)(=O)N1C[C@H](CCC(=O)OC)Oc2ccc(/C=C/c3c(F)cccc3Cl)cc21 [Example 89DV, methyl (S,E)-3-(6-(2-chloro-6-fluorostyryl)-4-((2-ethoxy-5-(trifluoromethyl)pyridin-3-yl)sulfonyl)-3,4-dihydro-2H-benzo[b][1,4]oxazin-2-yl)propanoate]",> 6.30,5.30 to 6.30
"CCc1nc(S(=O)(=O)N2C[C@H](CCC(=O)O)Oc3ccc(/C=C/c4c(F)cccc4Cl)cc32)c[nH]1 [Example 89DW, (S,E)-3-(6-(2-chloro-6-fluorostyryl)-4-((2-ethyl-1H-imidazol-4-yl)sulfonyl)-3,4-dihydro-2H-benzo[b][1,4]-oxazin-2-yl)propanoic acid]",< 5.00,< 5.00
"Cc1nn(C)c2ncc(S(=O)(=O)N3C[C@H](CCC(=O)O)Oc4ccc(/C=C/c5c(F)cccc5Cl)cc43)cc12 [Example 89DX, (S,E)-3-(6-(2-chloro-6-fluorostyryl)-4-((1,3-dimethyl-1H-pyrazolo[3,4-b]pyridin-5-yl)sulfonyl)-3,4-dihydro-2H-benzo[b][1,4]oxazin-2-yl)propanoic acid]",5.30 to 6.30,< 5.00
"CC(C)n1cnc(S(=O)(=O)N2C[C@H](CCC(=O)O)Oc3ccc(/C=C/c4c(F)cccc4Cl)cc32)c1 [Example 89DY, (S,E)-3-(6-(2-chloro-6-fluorostyryl)-4-((1-isopropyl-1H-imidazol-4-yl)sulfonyl)-3,4-dihydro-2H-benzo[b][1,4]-oxazin-2-yl)propanoic acid]",> 6.30,5.30 to 6.30
"Cn1cnc(S(=O)(=O)N2C[C@H](CCC(=O)O)Oc3ccc(/C=C/c4c(F)cccc4Cl)cc32)c1Cl [Example 89DZ, (S,E)-3-(4-((5-chloro-1-methyl-1H-imidazol-4-yl)sulfonyl)-6-(2-chloro-6-fluorostyryl)-3,4-dihydro-2H-benzo[b][1,4]-oxazin-2-yl)propanoic acid]",5.30 to 6.30,< 5.00
"CCOc1nn(CC)cc1S(=O)(=O)N1C[C@H](CCC(=O)O)Oc2ccc(/C=C/c3ccccn3)cc21 [Example 89E, (S,E)-3-(4-((3-ethoxy-1-ethyl-1H-pyrazol-4-yl)sulfonyl)-6-(2-(pyridin-2-yl)vinyl)-3,4-dihydro-2H-benzo[b][1,4]oxazin-2-yl)propanoic acid]",< 5.00,< 5.00
"CCn1cc(S(=O)(=O)N2C[C@H](CCC(=O)O)Oc3ccc(/C=C/c4c(Cl)cccc4C(F)(F)F)cc32)c(OCCO)n1 [Example 89EA, (S,E)-3-(6-(2-chloro-6-(trifluoromethyl)styryl)-4-((1-ethyl-3-(2-hydroxyethoxy)-1H-pyrazol-4-yl)sulfonyl)-3,4-dihydro-2H-benzo[b][1,4]oxazin-2-yl)propanoic acid]",> 6.30,> 6.30

# The remaining lines, values ahead:
pEC50 (RORγ-LBD),pEC50 (Gal4-RORγ-LBD),Compound
> 6.30,5.30 to 6.30,"COC(=O)CC[C@H]1CN(S(=O)(=O)c2cccc(OC(F)F)c2)c2cc(/C=C/c3ccccn3)ccc2O1 [Example 89D, (S,E)-methyl 3-(4-((3-(difluoromethoxy)phenyl)sulfonyl)-6-(2-(pyridin-2-yl)vinyl)-3,4-dihydro-2H-benzo[b][1,4]oxazin-2-yl)propanoate]"
> 6.30,5.30 to 6.30,"COC(=O)CC[C@H]1CN(S(=O)(=O)c2cccc(C(F)(F)F)c2)c2cc(/C=C/c3ccccn3)ccc2O1 [Example 89DH, methyl (S,E)-3-(6-(2-(pyridin-2-yl)vinyl)-4-((3-(trifluoromethyl)phenyl)sulfonyl)-3,4-dihydro-2H-benzo[b][1,4]oxazin-2-yl)propanoate]"
> 6.30,< 5.00,"COC(=O)CC[C@H]1CN(S(=O)(=O)c2cccc(C(F)(F)F)c2)c2cc(/C=C/c3cccc(Cl)c3)ccc2O1 [Example 89DI, methyl (S,E)-3-(6-(3-chlorostyryl)-4-((3-(trifluoromethyl)phenyl)-sulfonyl)-3,4-dihydro-2H-benzo[b][1,4]oxazin-2-yl)propanoate]"
> 6.30,5.30 to 6.30,"CCOc1nn(CC)cc1S(=O)(=O)N1C[C@H](CCC(=O)OC)Oc2ccc(/C=C/c3ncccc3Cl)cc21 [Example 89DJ, methyl (S,E)-3-(6-(2-(3-chloropyridin-2-yl)vinyl)-4-((3-ethoxy-1-ethyl-1H-pyrazol-4-yl)sulfonyl)-3,4-dihydro-2H-benzo[b][1,4]oxazin-2-yl)propanoate]"
> 6.30,5.30 to 6.30,"COc1cccnc1/C=C/c1ccc2c(c1)N(S(=O)(=O)c1cccc(C(F)(F)F)c1)C[C@H](CCC(=O)O)O2 [Example 89DK, (S,E)-3-(6-(2-(3-methoxypyridin-2-yl)vinyl)-4-((3-(trifluoromethyl)phenyl)-sulfonyl)-3,4-dihydro-2H-benzo[b][1,4]oxazin-2-yl)propanoic acid]"
> 6.30,5.30 to 6.30,"N#Cc1cccnc1/C=C/c1ccc2c(c1)N(S(=O)(=O)c1cccc(C(F)(F)F)c1)C[C@H](CCC(=O)O)O2 [Example 89DL, (S,E)-3-(6-(2-(3-cyanopyridin-2-yl)vinyl)-4-((3-(trifluoromethyl)-phenyl)sulfonyl)-3,4-dihydro-2H-benzo[b][1,4]oxazin-2-yl)propanoic acid]"
> 6.30,> 6.30,"CCOc1ncc(C(F)(F)F)cc1S(=O)(=O)N1C[C@H](CCC(=O)O)Oc2ccc(/C=C/c3c(Cl)cccc3C(F)(F)F)cc21 [Example 89DM, (S,E)-3-(6-(2-chloro-6-(trifluoromethyl)styryl)-4-((2-ethoxy-5-(trifluoromethyl)-pyridin-3-yl)sulfonyl)-3,4-dihydro-2H-benzo[b][1,4]-oxazin-2-yl)propanoic acid]"
